Measurements from the supplement of paper PMC10307832.

Assays:
Experiment in all cases: relative viability (nuclei count vs DMSO), 5 days (fraction); higher = more cells survive
EHT 1864 + Phenformin = compound: C1COCCN1CC2=CC(=O)C(=CO2)OCCCCCSC3=C4C=CC(=CC4=NC=C3)C(F)(F)F [EHT 1864] + N=C(N)NC(=N)NCCc1ccccc1 [Phenformin] (partner 250 µM)
Method in brief: (§1)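 Nuclei were stained with Hoechst during a one-step fixation (final 0.05% Triton X-100, 1% formaldehyde, 1 ug/ml Hoechst) carried out 5 days after dosing, then counted on 4× images. The cells, lung cancer lines in 1536-well plates, had been dosed by pin tool the day after seeding with one drug alone or a fixed anchor-drug dose plus five library-drug doses (not always all listed) in √10 steps. Relative viability is the nuclei count in treated wells divided by that in vehicle wells, and each value is the median of duplicate plates.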

EHT 1864 + OSI-027 = compound: C1COCCN1CC2=CC(=O)C(=CO2)OCCCCCSC3=C4C=CC(=CC4=NC=C3)C(F)(F)F [EHT 1864] + COc1cccc2cc(-c3nc([C@H]4CC[C@H](C(=O)O)CC4)n4ncnc(N)c34)[nH]c12 [OSI-027] (partner 0.5 µM)
Method in brief: as §1

EHT 1864 + Trametinib = compound: C1COCCN1CC2=CC(=O)C(=CO2)OCCCCCSC3=C4C=CC(=CC4=NC=C3)C(F)(F)F [EHT 1864] + CC(=O)Nc1cccc(-n2c(=O)n(C3CC3)c(=O)c3c(Nc4ccc(I)cc4F)n(C)c(=O)c(C)c32)c1 [Trametinib] (partner 0.02 µM)
Method in brief: as §1

EHT 1864 + Crizotinib = compound: C1COCCN1CC2=CC(=O)C(=CO2)OCCCCCSC3=C4C=CC(=CC4=NC=C3)C(F)(F)F [EHT 1864] + C[C@@H](Oc1cc(-c2cnn(C3CCNCC3)c2)cnc1N)c1c(Cl)ccc(F)c1Cl [Crizotinib] (partner 1 µM)
Method in brief: as §1

Cell Line	relative viability (EHT 1864 + Phenformin; first compound 0.04 µM)	relative viability (EHT 1864 + Phenformin; first compound 0.4 µM)	relative viability (EHT 1864 + Phenformin; first compound 1.265 µM)	relative viability (EHT 1864 + Phenformin; first compound 4 µM)	relative viability (EHT 1864 + OSI-027; first compound 0.04 µM)	relative viability (EHT 1864 + OSI-027; first compound 0.4 µM)	relative viability (EHT 1864 + OSI-027; first compound 1.265 µM)	relative viability (EHT 1864 + OSI-027; first compound 4 µM)	relative viability (EHT 1864 + Trametinib; first compound 0.04 µM)	relative viability (EHT 1864 + Trametinib; first compound 0.1265 µM)	relative viability (EHT 1864 + Trametinib; first compound 0.4 µM)	relative viability (EHT 1864 + Trametinib; first compound 1.265 µM)	relative viability (EHT 1864 + Trametinib; first compound 4 µM)	relative viability (EHT 1864 + Crizotinib; first compound 0.04 µM)	relative viability (EHT 1864 + Crizotinib; first compound 0.1265 µM)	relative viability (EHT 1864 + Crizotinib; first compound 0.4 µM)	relative viability (EHT 1864 + Crizotinib; first compound 1.265 µM)	relative viability (EHT 1864 + Crizotinib; first compound 4 µM)	relative viability (EHT 1864 + Phenformin; first compound 0.1265 µM)	relative viability (EHT 1864 + OSI-027; first compound 0.1265 µM)
NCI-H1734	0.539	0.397	0.433	0.432	0.706	0.611	0.66	0.592	0.781	0.709	0.643	0.592	0.61	0.67	0.626	0.632	0.723	0.721	–	–
NCI-H1755	0.607	0.594	0.612	0.629	0.779	0.691	0.619	0.618	0.732	0.782	0.768	0.701	0.726	0.891	0.833	0.794	0.814	0.845	0.564	0.619
NCI-H1792	0.256	–	0.304	0.368	0.67	0.717	0.689	0.68	0.432	–	0.438	0.345	0.456	0.982	0.852	0.972	0.895	1.04	–	0.65
NCI-H1915	0.396	0.366	0.382	0.374	0.657	0.641	0.599	0.545	0.295	–	0.283	0.28	0.286	0.86	–	0.922	0.87	0.887	–	–
NCI-H1944	0.233	0.224	0.191	0.199	0.44	0.443	0.417	0.399	0.426	–	0.42	0.39	0.387	1.18	–	1.13	1.04	1.15	–	–
NCI-H1975	0.406	0.407	–	0.396	0.709	0.667	–	0.591	0.375	0.329	0.296	0.225	0.327	0.967	0.987	0.946	0.851	0.84	0.42	0.668
NCI-H1993	0.537	0.488	0.534	0.508	0.548	0.541	0.554	0.553	0.579	–	0.5	0.485	0.543	0.882	0.78	0.751	0.817	0.958	–	–
NCI-H2009	0.467	0.493	0.362	0.436	0.594	0.677	0.62	0.511	0.252	0.267	0.301	0.336	0.277	0.978	1.01	1.08	0.962	0.711	0.468	0.521
NCI-H2023	0.405	0.371	0.358	0.347	0.373	0.375	0.313	0.369	0.514	0.459	0.492	0.569	0.573	0.675	0.714	0.632	0.666	0.617	0.417	0.314
